Drawing on a melting point compilation (Tetko et al.; mined from patent text by program, amines drawn as free bases though some values may be those of a salt), this text covers melting point for 88 compounds.

As to `N#CNc1nccc(Oc2ccc(NC(=O)c3cc(F)cc(N4CCCCC4)c3)c3ccccc23)n1`, the melting point (usually the temperature of the solid-liquid transition) lay within 160 to 162 °C.
The value for `O=C(CCCCCc1ccc(Cl)cc1)Nc1ccc(C(=O)O)cc1` was 218 to 220 °C; that for `Cc1nc(N2CCN(Cc3ccc(OC(F)(F)F)cc3)C2=O)sc1C(=O)NC[C@H](O)c1ccccc1` was 149 to 151 °C; that for `O=[N+]([O-])c1cc(Cc2cc(Cl)ccc2O)c(O)c(Cc2cc(Cl)ccc2O)c1` was 220 °C.
The result for `COc1ccc(C2CNC(=O)C2)cc1OC(C)C(O)CN1CCN(c2ccccc2)CC1` (stereo not drawn) reads 116 to 118 °C.
The result for `COC(=O)C(O)Cc1ccc(OCCN(C)c2nc3ccccc3o2)cc1` (stereo not drawn) reads 100 to 112 °C; that for `CC1C(=O)Nc2ccc(Cl)cc2N1C1CC1` (racemic), 167 °C.
`CC1CN2C(=O)c3nc[nH]c3N(Cc3ccc(Cl)cc3)C2=N1` (stereo not drawn) returned a melting point of 259 to 260 °C.
The result for `COc1cccc(C=C2NC(=O)N(C)C2=O)c1` reads 203 to 205 °C; that for `COc1cccc2c1CCC21OC(=O)c2ccccc21` (stereo not drawn), 111 to 112 °C; that for `Cc1c(-c2ccccc2)c(N2CC[C@H](N(C)C)C2)c2oc(-c3ccccc3O)nc2c1C#N`, 159 to 162 °C.
The value for `CCOC(=O)C1(CCl)Nc2cc(C)cc(C)c2C(=O)N1c1ccccc1Cl` (stereo not drawn) was 94 to 95 °C; that for `CCOc1ccc(C(C)=NOCCO)cc1` was 51 to 54 °C; that for `CCCNS(=O)(=O)c1cc(C(=O)CBr)ccc1Cl` was 96 °C.
The value for `O=[N+]([O-])c1ccc(NC=C(S(=O)(=O)c2ccccc2)S(=O)(=O)c2ccccc2)nc1` was 229 to 231 °C.
Regarding `CC1(C)Oc2ccc(C#N)cc2C(n2ccccc2=O)C1O` (stereo not drawn), the melting point was determined as 243 °C.
The value for `O=C(CCCOc1ccc(OCc2ccccc2)cc1)C(F)(F)F` was 51 to 53 °C; that for `CC1(C)Oc2cc(Cl)c(F)cc2[C@@H](Br)[C@@H]1O` (relative stereo) was 97 to 99 °C; that for `CNC(=O)c1cccc(C2=NC(C)(C)Cc3cc(OC)c4c(c32)CC(C)(C)O4)c1` was 206 to 207 °C.
The result for `Cc1c(-c2ccccc2)oc2c(CCl)cccc2c1=O` reads 112 to 113 °C; that for `O=C(Cc1ccc(Cl)cc1)Nc1ccc(O)cc1O`, 178 to 179 °C.
The value for `C[N+]([O-])=C(Cn1cncn1)c1ccc(Cl)cc1` was 119 to 121 °C.
Take `Cc1c(SCCCCS)ccnc1CO`: the melting point was in the range of 58 to 63 °C.
With `O=C(O)CCCn1ccc(=O)c(O)c1Cc1ccccc1`, the melting point fell in the range of 170 to 172 °C.
`N#CCC(=O)NCc1ccc(Cl)nc1` gave a melting point of 119 °C.
The result for `COc1cc(-c2ccccc2Cl)c(Cl)cc1C(=O)N1Cc2ccc(C(=O)N(C)Cc3cccnc3)n2Cc2ccccc21` reads 196 to 198 °C; that for `Cc1ccc(-c2ccc3c(c2)C=C(C(=O)O)CCO3)cc1`, 255 to 256 °C.
The result for `O=C(Nc1ncc(C(F)(F)F)o1)C1c2ccccc2Oc2ccc(F)cc21` (racemic) reads 217 °C; that for `CN(C)CC/C=C1/c2cc(Br)ccc2COc2ccccc21`, 91 to 100 °C; that for `C#CCN1CC(=O)Oc2cc(F)c(NN)cc21`, 146 °C.
`C[C@@H](NC(=O)c1c[nH]c2ncc(-c3nn(C)c4cc(Cl)ccc34)nc12)C(=O)N1CC[C@H](F)C1` gave a melting point of 269 to 271 °C.
The compound `CC(=O)NCC1CN(Cc2ccc(F)cc2)CCO1` (stereo not drawn) had a melting point of 120 to 122 °C.
`CC(C)c1noc(C2CCN(c3ccc4oc(-c5ccc(S(C)(=O)=O)cc5F)nc4c3)CC2)n1` had a melting point of 206 to 209 °C.
The result for `CN(C)C(=O)c1cc2ccc3c(c2cc1Cn1cncn1)C(C)(C)C(=O)O3` reads 172 to 173 °C; that for `CC(=O)NCCCc1ccc(CCl)cc1`, 89 to 90 °C.
The value for `COc1ccc(CC(=O)Nc2nc3c(ncn3C3CC(O)C(COC(c4ccccc4)(c4ccc(OC)cc4)c4ccc(OC)cc4)O3)c(=O)[nH]2)cc1` (stereo not drawn) was 148 to 156 °C; that for `CC1=C(C(=O)OC(C)(C)C)C(c2ccccc2I)C(C(=O)OC(C)(C)C)=C(C)N1` was 184 to 185 °C; that for `O=c1[nH]c2ccccc2n1CCCCN1CCC(c2c[nH]c3ccccc23)CC1` was 196 °C.
With `CCCCCN1CCN(c2nc(C)c(C(=O)NCc3cccnc3)s2)C1=O`, the melting point lay within 102 to 103 °C.
The value for `COc1ccc(C2CCSCC2)cc1OC1CCCC1` was 83 to 85 °C; that for `CC(=O)n1nc(-c2cccc([N+](=O)[O-])c2)n2nc(C)cc12` was 207 to 210 °C; that for `O=C(NCc1ccccc1)c1ccnc(-n2ccc(O)cc2=O)c1` was 102 to 105 °C.
The result for `CC(C)(C)OC(=O)N1CCNC(=O)C1Cc1ccc(OCc2ccccc2)cc1` (stereo not drawn) reads 145 to 147 °C.
Take `[N-]=[N+]=NCc1cc(C(N)C(=O)O)ccc1O` (stereo not drawn): the melting point was over 300 °C.
The result for `CNc1nc(-c2ccc(OCCCn3ccnc3)cc2)no1` reads 154 to 155 °C; that for `CC(C)(C)c1cc(-c2cncc(C3SC(N4CCOCC4)=NC3=O)c2)ccc1O` (stereo not drawn), 231 to 234 °C; that for `CC1=C(C(O)(c2ccc(C)cc2)C2SCSCS2)CN(C)O1` (stereo not drawn), 150 to 152 °C.
The value for `COc1ccc(COC(=O)C2=C3[C@@H](C)[C@H](C)[C@@H]3S[C@@H]3[C@H](NC(=O)Cc4ccccc4)C(=O)N23)cc1` was 172 to 173 °C.
The result for `N#Cc1cnn2c(C(F)(F)F)cc(-c3ccc(Cl)c(Cl)c3)nc12` reads 206 °C; that for `Cc1nc(N)nc(N)c1-c1cc(NS(C)(=O)=O)ccc1Cl`, 234 to 240 °C; that for `CCCc1nc(C)n2nc(SC)nc2c1Cc1ccc([N+](=O)[O-])cc1`, 130 °C.
For the compound `O=C(C1CCNCC1)N1CCN(c2cccc3[nH]ccc23)CC1`, the melting point was over 240 °C.
`CCOC(=O)C1=C(C)NC(c2cscn2)=NC1c1cccc(O)c1` (stereo not drawn): the melting point was in the range of 180 to 183 °C.
The result for `O=C(NCCO)c1[nH]c2ccc(Cl)cc2c1S(=O)(=O)c1ccccc1` reads 198 to 200 °C; that for `O=c1c2ccc(Cl)cc2[nH]c2c(O)nn(Cc3ccco3)c(=O)c12`, over 265 °C.
The compound `CCCC1(CCC)c2ccccc2-c2cc3c(cc21)OCN3c1c(O)ccc2oc3ccccc3c12` displayed a melting point of 304 to 305 °C.
The result for `CCCCc1oc2ccccc2c1C(=O)NCc1ccc2cc(OCC#N)ccc2c1` reads 142 to 143 °C; that for `O=C(O)COc1nnc(C(Cl)Cl)s1`, 114 °C; that for `CC/C=C/CNc1cccc(-c2ccnc3c(C(=O)c4cccs4)cnn23)c1`, 72 to 75 °C.
The result for `Cc1nc2ccc3c(c2o1)C(O)(CC#N)C(C(C)C)C3` (stereo not drawn) reads 149 to 152 °C.
The result for `COc1ccc(C2(O)c3cc(NC(=O)CC(C)(C)C)c(C)c(C)c3OC2(C)C)cc1` (stereo not drawn) reads 110 to 111 °C; that for `CC(C)Oc1ccc(CCCOc2nn(Cc3ccccc3)cc2CC(=O)O)c(Oc2ncc(C(F)(F)F)cc2Cl)c1`, 115 to 116 °C; that for `O=C1CNC(=O)C(CSC(c2ccccc2)(c2ccccc2)c2ccccc2)N1` (stereo not drawn), 225 to 227 °C.
The compound `O=C(O)C1c2ccccc2N=C(N2CCCCC2)N1c1ccccc1` (stereo not drawn) yielded a melting point of 238 °C.
The result for `CCOC(=O)CONC(=S)Nc1cc(Cl)ccc1C` reads 117 to 119 °C; that for `COc1ccc(C(=O)Nc2cc(NC(=O)c3ccc(O)cc3)ccc2C)cc1OC`, 258 to 259 °C; that for `Nc1nc(C(F)(F)F)c(-c2ccncc2)cc1C(=O)O`, over 283 °C.
The result for `Cc1ccc(-c2nc3ccccc3o2)cc1` reads 113 to 114 °C; that for `Cc1oc(-c2ccc(C(F)(F)F)cc2)nc1COc1ccc(CN(O)C(N)=O)cc1`, 146 to 147 °C; that for `OCC1OC(n2cnc3c(NCc4ccc5ccc6cccc7ccc4c5c67)ncnc32)C(O)C1O` (stereo not drawn), 144 °C.
The value for `Cn1nc(-c2ccccc2)c(N2CCOCC2)c(C=NO)c1=O` was 182 to 183 °C; that for `O=C(C=C1CCN(CCc2ccc(F)cc2)CC1)NCc1ccc(F)c(F)c1` was 117 to 120 °C; that for `COC(=O)C(=CN1c2ccc(F)c(F)c2OCC1C)C(=O)OC` (stereo not drawn) was 146 to 147 °C.
Take `FC(F)(F)c1ccc(-c2cc(C(F)(F)F)n3ncc(-c4cccnc4)c3n2)cc1`: the melting point was 163 °C.
The value for `O=C(Nc1ccc(-c2ncno2)cc1)Oc1ccc([N+](=O)[O-])cc1` was 210 to 212 °C; that for `COc1ccc(S(=O)(=O)Nc2ccccc2NC(=O)c2cccnc2C)cc1` was 148 to 149 °C.
`C1=Cn2cnnc2Cc2ccsc21` showed a melting point of 146 °C.
As to `CCN1CN=C2SCC(O)(c3ccc(Br)cc3)N2C1` (stereo not drawn), the melting point lay in the range of 132 to 134 °C.
The value for `C#Cc1cc(=O)n2nc(S(=O)(=O)Cc3ccccc3)sc2n1` was 101 to 106 °C; that for `Nc1ncc2ncn(CCC(CO)CO)c2n1` was 154 °C.
Regarding `CCC(O)(CC)c1ccc(-c2cccc(OCc3ccc(CO)c(CO)c3)c2C)c(C)c1`, the melting point lay in the range of 81 to 82 °C.
On to `CC1CC(C)(C)OOC(C)(CCC(=O)NNC(=O)CCC(=O)O)O1` (stereo not drawn), for which the melting point was 122 to 126 °C.
Compound `CCOC(=O)C=Cc1cc(=O)c(C(=O)O)cn1-c1ccc(O)cc1C` had a melting point of 185 to 189 °C.
The result for `CNC(=O)CN1CCc2cc(Nc3ncc(Cl)c(N[C@@H]4CCCC[C@H]4NS(C)(=O)=O)n3)c(OC)cc2CC1` reads 92 to 104 °C.
The result for `Cn1c([N+](=O)[O-])cnc1-c1cc(CCC(=O)O)on1` reads 114 °C; that for `CCN1CCN(C(=O)c2ccc(-c3cc(-c4c(-c5cccc(C)n5)nc5c(C)cccn45)ccn3)cc2)CC1`, 212 °C.
For the compound `COC(=O)Cc1c(Cl)ncnc1N(C)C`, the melting point fell in the range of 30 to 32 °C.
Consider `Cc1cc(C)cc(-c2cc(C)cn2-c2ccc(S(N)(=O)=O)cc2)c1`, for which the melting point was in the range of 163 to 166 °C.
